Consider 1 molecule from ChEMBL document CHEMBL1255236, “Hepatotoxicity observed in clinical trials of aplaviroc (GW873140)” (Antimicrob Agents Chemother, 2008).

Data set [1] has as its system Human immunodeficiency virus 1. In words: Antiviral activity against Human immunodeficiency virus 1 infected in human assessed as log reduction in HIV-1 RNA level at 600 mg/kg, BID after 10 days. The data set is classed as functional.
Data set [2] concerns Rattus norvegicus. In words: Hepatotoxicity in rat assessed as increase in liver ALT level at >500 mg/kg/day. The note with it: in vivo. The data set is classed as toxicity, organism-based.
The test system of another data set is Monkey. In words: Hepatotoxicity in monkey assessed as increase in liver ALT level at 2000 mg/kg/day. Type of data set: toxicity, organism-based. The settings on record: cercopithecidae, in vivo.
Data set [3] is described as follows: AUC (0 to 24 hrs) in Human immunodeficiency virus 1 infected human at 600 mg/kg, BID. The settings on record: plasma. Set-up: time < 24 hr, dose 600 mg/kg. Type of data set: ADME, organism-based.
Data set [4] is described as follows: AUC (0 to 24 hrs) in Human immunodeficiency virus 1 infected human at 800 mg/kg, BID. The data set is classed as ADME, organism-based. Set-up: time < 24 hr, dose 800 mg/kg. The settings on record: plasma.
The nature of data set [5]: AUC (0 to 24 hrs) in Human immunodeficiency virus 1 infected human at 200 mg/kg, BID. The settings on record: plasma. The arrangement: time < 24 hr, dose 200 mg/kg. Type of data set: ADME, organism-based.
Data set [6] is described as follows: AUC (0 to 24 hrs) in Human immunodeficiency virus 1 infected human at 400 mg/kg, BID. The settings on record: plasma. Type of data set: ADME, organism-based. Set-up: time < 24 hr, dose 400 mg/kg.
A short description of data set [7]: AUC (0 to 24 hrs) in Human immunodeficiency virus 1 infected human at 800 mg/kg, QD. The arrangement: time < 24 hr, dose 800 mg/kg. Type of data set: ADME, organism-based. The note with it: plasma.
A short description of data set [8]: Half life in healthy human at 200 to 800 mg/kg, BID. The data set is classed as ADME, organism-based. The arrangement: dose 200-800 mg/kg. The settings on record: in vivo.
Data set [9] relates to Rattus norvegicus. The data set is described as follows: Hepatotoxicity in rat assessed as increase in liver bilirubin level at >500 mg/kg/day. The data set is classed as toxicity, organism-based. The settings on record: in vivo.

The structures appear in SMILES notation.

In general, AUC refers to concentration integrated over time. Broadly, the half-life is the time in which the quantity being followed falls by half.

Consider `CCCCN1C(=O)[C@@H]([C@H](O)C2CCCCC2)NC(=O)C12CCN(Cc1ccc(Oc3ccc(C(=O)O)cc3)cc1)CC2` [APLAVIROC], for which the FC in data set [1] was found to be 1.66. The Activity entry was “Toxic” in the data set on Rattus norvegicus [2], “Non-toxic” in the data set with Monkey and “Toxic” in the data set with Rattus norvegicus [9]. Further, the AUC at 24 h in data set [3] turned out to be 2100 ng·h/mL; in data set [4], 3410 ng·h/mL; in [5], 2010 ng·h/mL; in data set [6], 6060 ng·h/mL; in [7] it was 5840 ng·h/mL. This molecule gave a half-life in [8] of 3 h.
